# According to patent publication US5612350A, “Macrocyclic immunomodulators with novel cyclohexyl ring replacements” (Abbott Laboratories, priority 1995, dated 1997):
# Tested on: human mixed lymphocyte reaction (MLR)
# Test: human mixed lymphocyte reaction (MLR) assay, immunosuppressant activity
# Type: cell-based
# Details: Table 1
# Method: In Vitro Assay of Biological Activity
# The immunosuppressant activity of the compounds of the present invention was determined using the human mixed lymphocyte reaction (MLR) assay described by. T. Kinoet al. in Transplantation Proceedings, XIX(5):36-39, Suppl. 6 (1987).
row,SMILES,IC50
1,CC[C@@H]1/C=C(\C)C[C@H](C)C[C@H](OC)[C@H]2O[C@@](O)(C(=O)C(=O)N3CCCC[C@H]3C(=O)O[C@H](/C(C)=C/C3CCN(C(=O)N4CCOCC4)CC3)[C@H](C)[C@@H](O)CC1=O)[C@H](C)C[C@@H]2OC [Example 56],2.6 nM
2,CC[C@@H]1/C=C(\C)C[C@H](C)C[C@H](OC)[C@H]2O[C@@](O)(C(=O)C(=O)N3CCCC[C@H]3C(=O)O[C@H](/C(C)=C/[C@H]3CCOC(=O)CC3)[C@H](C)[C@@H](O)CC1=O)[C@H](C)C[C@@H]2OC [Example 11],1.1 nM
3,CCCNC(=O)CC[C@@H](/C=C(\C)[C@H]1OC(=O)[C@@H]2CCCCN2C(=O)C(=O)[C@]2(O)O[C@H]([C@@H](OC)C[C@@H](C)C/C(C)=C/[C@@H](CC)C(=O)C[C@H](O)[C@H]1C)[C@@H](OC)C[C@H]2C)CCO [Example 13],388 nM
4,CC[C@@H]1/C=C(\C)C[C@H](C)C[C@H](OC)[C@H]2O[C@@](O)(C(=O)C(=O)N3CCCC[C@H]3C(=O)O[C@H](/C(C)=C/[C@@H]3CCC(=O)N4CCSC4C3)[C@H](C)[C@@H](O)CC1=O)[C@H](C)C[C@@H]2OC (some centres unmarked) [Example 39],37 nM

# Continued, values first:
row,IC50,SMILES
1,0.57 nM,CC[C@@H]1/C=C(\C)C[C@H](C)C[C@H](OC)[C@H]2O[C@@](O)(C(=O)C(=O)N3CCCC[C@H]3C(=O)O[C@H](/C(C)=C/[C@@H]3CCNC(=O)OCC3)[C@H](C)[C@@H](O)CC1=O)[C@H](C)C[C@@H]2OC [Example 37]
2,65 nM,CC[C@@H]1/C=C(\C)C[C@H](C)C[C@H](OC)[C@H]2O[C@@](O)(C(=O)C(=O)N3CCCC[C@H]3C(=O)O[C@H](/C(C)=C/[C@@H](CCO)CCC(=O)NCCO)[C@H](C)[C@@H](O)CC1=O)[C@H](C)C[C@@H]2OC [Example 9]
3,23 nM,CC[C@@H]1/C=C(\C)C[C@H](C)C[C@H](OC)[C@H]2O[C@@](O)(C(=O)C(=O)N3CCCC[C@H]3C(=O)O[C@H](/C(C)=C/[C@@H](CCO)CCC(=O)NCc3ccccc3)[C@H](C)[C@@H](O)CC1=O)[C@H](C)C[C@@H]2OC [Example 7]

# Same assay, conditions: Table 1, at 1 × 10^-6 (M), read-out: 25% at 1 × 10^-6 (in the IC50 (M) column)
row,SMILES,inhibition at 1 µM
1,CC[C@@H]1/C=C(\C)C[C@H](C)C[C@H](OC)[C@H]2O[C@@](O)(C(=O)C(=O)N3CCCC[C@H]3C(=O)O[C@H](/C(C)=C/[C@@H](CCO)CCC(=O)N3CCOCC3)[C@H](C)[C@@H](O)CC1=O)[C@H](C)C[C@@H]2OC [Example 15],25%
